From BindingDB's records for doi:10.1021/jm020889p (2002)

Tests used:
[1] = biological target: Sigma non-opioid intracellular receptor 1 (Cavia porcellus) (UniProt Q60492); assay: Ability to displace [3H](+)-pentazocine from Sigma opioid receptor type 1 of guinea pig brain
[2] = biological target: Sigma-2 receptor (TMEM97) (Rattus norvegicus); assay: Ability to displace [3H]ditolylguanidine in the presence of 100 nM (+)-pentazocine from Sigma opioid receptor type 2 of rat liver

Sigma non-opioid intracellular receptor 1 (Cavia porcellus), sequence (Q60492 whole entry, looked up): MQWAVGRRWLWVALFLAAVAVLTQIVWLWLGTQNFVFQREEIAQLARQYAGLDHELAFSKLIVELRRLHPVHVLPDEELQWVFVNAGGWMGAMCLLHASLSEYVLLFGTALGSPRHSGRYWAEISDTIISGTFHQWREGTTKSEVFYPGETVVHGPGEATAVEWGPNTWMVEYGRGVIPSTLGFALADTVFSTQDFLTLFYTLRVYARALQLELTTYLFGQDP

| Structure (SMILES) | Ki [1] [nM] | Ki [2] [nM] |
| --- | --- | --- |
| CNCCC1Cc2ccccc2C2(CCN(Cc3ccccc3)CC2)O1 (configuration not stated) [1N-methyl-2-[1'-benzylspiro[3,4-dihydro-1H-isochromene-1,4'-(hexahydropyridine)]-3-yl]-1-ethanamine] | 148 | 4360 |
| CCOC(=O)CC1OC2(CCN(Cc3ccccc3)CC2)c2ccccc21 (configuration not stated) [ethyl 2-[1'-benzylspiro[1,3-dihydroisobenzofuran-1,4'-(hexahydropyridine)]-3-yl]acetate] | 15.1 | 6770 |
| N#CCC1OC2(CCN(Cc3ccccc3)CC2)c2ccccc21 (configuration not stated) [1'-benzylspiro[1,3-dihydroisobenzofuran-1,4'-(hexahydropyridine)]-3-ylmethyl cyanide] | 2.16 | 1660 |
| CNC(=O)CC1Cc2ccccc2C2(CCN(Cc3ccccc3)CC2)O1 (configuration not stated) [1N-methyl-2-[1'-benzylspiro[3,4-dihydro-1H-isochromene-1,4'-(hexahydropyridine)]-3-yl]acetamide] | 170 | – |
| N#CCC1Cc2ccccc2C2(CCN(Cc3ccccc3)CC2)O1 (configuration not stated) [1'-benzylspiro[3,4-dihydro-1H-isochromene-1,4'-(hexahydropyridine)]-3-ylmethyl cyanide] | 15.9 | 4700 |
| O=CCC1Cc2ccccc2C2(CCN(Cc3ccccc3)CC2)O1 (configuration not stated) [2-[1'-benzylspiro[3,4-dihydro-1H-isochromene-1,4'-(hexahydropyridine)]-3-yl]acetaldehyde] | 55.1 | 9910 |
| CCOC(=O)CC1Cc2ccccc2C2(CCN(Cc3ccccc3)CC2)O1 (configuration not stated) [ethyl 2-[1'-benzylspiro[3,4-dihydro-1H-isochromene-1,4'-(hexahydropyridine)]-3-yl]acetate] | 183 | 22700 |
| CCOC(=O)C1OC2(CCN(Cc3ccccc3)CC2)c2ccccc21 (configuration not stated) [ethyl 1'-benzylspiro[1,3-dihydroisobenzofuran-1,4'-(hexahydropyridine)]-3-carboxylate] | 8.95 | 7130 |

The next lines start with the values.

| Ki [1] [nM] | Ki [2] [nM] | Structure (SMILES) |
| --- | --- | --- |
| 7.16 | 2090 | OCC1Cc2ccccc2C2(CCN(Cc3ccccc3)CC2)O1 (configuration not stated) [1'-benzylspiro[3,4-dihydro-1H-isochromene-1,4'-(hexahydropyridine)]-3-ylmethanol] |
| 9.33 | 10500 | CCOC(=O)C1Cc2ccccc2C2(CCN(Cc3ccccc3)CC2)O1 (configuration not stated) [ethyl 1'-benzylspiro[3,4-dihydro-1H-isochromene-1,4'-(hexahydropyridine)]-3-carboxylate] |
| 2.18 | – | N#CC1OC2(CCN(Cc3ccccc3)CC2)c2ccccc21 (configuration not stated) [1'-benzylspiro[1,3-dihydroisobenzofuran-1,4'-(hexahydropyridine)]-3-carbonitrile] |
| 12.7 | 8460 | OCCC1Cc2ccccc2C2(CCN(Cc3ccccc3)CC2)O1 (configuration not stated) [2-[1'-benzylspiro[3,4-dihydro-1H-isochromene-1,4'-(hexahydropyridine)]-3-yl]-1-ethanol] |
